Among the data in patent US20140128385A1 (NOVARTIS AG, priority 2011, published 2014) are IC50 values, retold here.

Structures can show the parent of a compound that is named as a salt. A value given as a limit tells only on which side of the number the result lay.

In the experiment the target is T1, BACE-2 (Homo sapiens, UniProt Q9Y5Z0).
T1 construct: Recombinant BACE-2 (extracellular domain, expressed in baculovirus and purified using standard methods); made in house
T1 sequence (Q9Y5Z0 63-473 limits assumed): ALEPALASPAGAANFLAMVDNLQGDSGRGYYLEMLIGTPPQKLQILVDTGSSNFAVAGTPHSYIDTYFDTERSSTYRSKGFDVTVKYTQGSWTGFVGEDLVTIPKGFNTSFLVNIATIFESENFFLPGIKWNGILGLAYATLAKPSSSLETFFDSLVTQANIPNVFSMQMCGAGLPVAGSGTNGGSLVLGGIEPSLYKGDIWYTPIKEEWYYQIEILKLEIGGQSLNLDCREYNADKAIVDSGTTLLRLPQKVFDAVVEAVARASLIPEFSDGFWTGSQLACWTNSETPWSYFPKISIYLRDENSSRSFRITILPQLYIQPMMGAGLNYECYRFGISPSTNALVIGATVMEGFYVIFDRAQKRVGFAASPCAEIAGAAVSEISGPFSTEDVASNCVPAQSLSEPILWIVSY
Put plainly: assay for inhibition of BACE-2. It counts as biochemical.
As a reminder, the IC50 is the concentration needed to halve the response being measured. For `NC1=N[C@@](c2cc(NC(=O)c3cnc(Cl)cn3)ccc2F)(C(F)F)COC1` [Example 141], the IC50 worked out at 43 nM. On to `CC1(c2cccc(NC(=O)c3ccccn3)c2)COCC(N)=N1` (stereo not drawn) [Example 13, Pyridine-2-carboxylic acid [3-(5-amino-3-methyl-3,6-dihydro-2H-[1,4]oxazin-3-yl)-phenyl]-amide hydrochloride], for which inhibition was half-maximal at 431 nM (IC50).

The molecule `COc1ccc(C(=O)Nc2ccc(F)c([C@]3(C)CO[C@@](C)(C(F)(F)F)C(N)=N3)c2)nc1` [Example 69] gave an IC50 of 1 nM. Regarding `CN1CC(C)(c2cc(NC(=O)c3ccc(Cl)cn3)ccc2F)N=C(N)C1=O` (stereo not drawn) [Example 190, 5-Chloro-pyridine-2-carboxylic acid [3-(6-amino-2,4-dimethyl-5-oxo-2,3,4,5-tetrahydro-pyrazin-2-yl)-4-fluoro-phenyl]-amide hydrochloride], the IC50 is 35 nM. `NC1=N[C@@](c2cc(NC(=O)c3ccc(C(F)F)cn3)ccc2F)(C(F)F)COC1` [Example 132] gave an IC50 of 180 nM. Turning to `Cn1cc(N2CC(C)(c3cc(NC(=O)c4ccc(Br)cn4)ccc3F)N=C(N)C2=O)cn1` (stereo not drawn) [Example 197, 5-Bromo-pyridine-2-carboxylic acid {3-[6-amino-2-methyl-4-(1-methyl-1H-pyrazol-4-yl)-5-oxo-2,3,4,5-tetrahydro-pyrazin-2-yl]-4-fluoro-phenyl}-amide hydrochloride], the IC50 amounted to 18 nM. In turn, `Cc1cc(OC(F)F)cnc1C(=O)Nc1ccc(F)c([C@]2(C)COC(CF)(CF)C(N)=N2)c1` [Example 254, 5-Difluoromethoxy-3-methyl-pyridine-2-carboxylic acid [3-((R)-5-amino-6,6-bis-fluoromethyl-3-methyl-3,6-dihydro-2H-[1,4]oxazin-3-yl)-4-fluoro-phenyl]-amide] displayed an IC50 of 59 nM. `[2H]c1nc(C(=O)Nc2cc(C3(CF)COCC(N)=N3)ccn2)c(C([2H])([2H])[2H])c([2H])c1Cl` (stereo not drawn) [Example 269, 5-{2-[(5-Chloro-4,6-dideutero-3-trideuteromethyl-pyridine-2-carbonyl)-amino]-pyridin-4-yl}-5-fluoromethyl-5,6-dihydro-2H-[1,4]oxazin-3-yl-ammonium acetate] showed an IC50 of 1530 nM. As for `Cc1cc(C#N)cnc1C(=O)Nc1cccc(C2(CF)COCC(N)=N2)n1` (stereo not drawn) [Example 261, 5-{6-[(5-Cyano-3-methyl-pyridine-2-carbonyl)-amino]-pyridin-2-yl}-5-fluoromethyl-5,6-dihydro-2H-[1,4]oxazin-3-yl-ammonium trifluoro acetate], half-maximal inhibition (IC50) required 1020 nM. `C[C@@]1(c2cc(NC(=O)c3ccc(C#N)cn3)ccc2F)CO[C@@](C)(C(F)(F)F)C(N)=N1` [Example 73] showed a half-maximal inhibitory concentration (IC50) of 27 nM.

In turn, `NC1=NC(c2cc(NC(=O)c3ccc(Br)cn3)ccc2F)(C(F)(F)F)CCOC1` (stereo not drawn) [Example 99] registered an IC50 of 37 nM. The molecule `Cc1nc(C(=O)Nc2cccc(C3(C)COCC(N)=N3)c2)co1` (stereo not drawn) [Example 5, 2-Methyl-oxazole-4-carboxylic acid [3-(5-amino-3-methyl-3,6-dihydro-2H-[1,4]oxazin-3-yl)-phenyl]-amide hydrochloride] showed an IC50 of 373 nM. The figure for `Cc1cc(Br)cnc1C(=O)Nc1ccc(F)c(C2(CF)COCC(N)=N2)c1` (stereo not drawn) [Example 90] is 11 nM; for `NC1=N[C@@](c2cc(NC(=O)c3cnc(OCCF)cn3)ccc2F)(C(F)F)COC1` [Example 136] it is 1140 nM; for `CC1(c2cc(NC(=O)c3ccc(Cl)cn3)ccc2F)N=C(N)COCC1(F)F` (stereo not drawn) [Example 100, N-(3-(3-amino-6,6-difluoro-5-methyl-2,5,6,7-tetrahydro-1,4-oxazepin-5-yl)-4-fluorophenyl)-5-chloropicolinamide] it is 17 nM. `CC(=O)N1CC(N)=NC(c2cc(NC(=O)c3ncc(OC(F)F)cc3C)ccc2F)(C(F)F)C1` (stereo not drawn) [Example 211, 5-Difluoromethoxy-3-methyl-pyridine-2-carboxylic acid [3-(4-acetyl-6-amino-2-difluoromethyl-2,3,4,5-tetrahydro-pyrazin-2-yl)-4-fluoro-phenyl]-amide] displayed a concentration for half-maximal inhibition (IC50) of 89 nM. Consider `N#Cc1cnc(C(=O)Nc2ccc(F)c([C@]3(C(F)F)COCC(N)=N3)c2)c(N)c1` [Example 225], for which the IC50 was determined as 27 nM. Consider `NC1=N[C@@](c2cc(NC(=O)c3ncc(C(F)(F)F)cc3Cl)ccc2F)(C(F)F)COC1` [Example 46], for which the IC50 was 130 nM. Consider `Cn1ccc(C(=O)Nc2ccc(F)c([C@]3(C(F)F)COCC(N)=N3)c2)n1` [Example 150], for which the IC50 was 61 nM. For the molecule `Cc1cc(Cl)cnc1C(=O)Nc1cccc(C2(C(F)F)COCC(N)=N2)c1` (stereo not drawn) [Example 41], half-maximal inhibition (IC50) required 28 nM. `NC1=N[C@@](c2cc(NC(=O)c3ncc(Cl)cc3F)ccc2F)(C(F)F)COC1` [Example 140] displayed an IC50 of 15 nM.

`CC1(c2cccc(NC(=O)c3cc(Br)co3)c2)COCC(N)=N1` (stereo not drawn) [Example 20, 4-Bromo-furan-2-carboxylic acid [3-(5-amino-3-methyl-3,6-dihydro-2H-[1,4]oxazin-3-yl)-phenyl]-amide hydrochloride] yielded an IC50 of 226 nM. The figure for `COc1cnc(C(=O)Nc2ccc(F)c([C@]3(C(F)F)CNCC(N)=N3)c2)c(N)n1` (single isomer, unassigned) [Example 213] is 115 nM.

For the molecule `NC1=N[C@@](c2cc(NC(=O)c3ccc(O)nn3)ccc2F)(C(F)F)COC1` [Example 134], the IC50 amounted to 844 nM. For the molecule `NC1=NC(c2cccc(NC(=O)c3ccc(Cl)cn3)c2)(C(F)F)COC1` (stereo not drawn) [Example 35], the IC50 is 139 nM.

`NC1=N[C@@](c2cc(NC(=O)c3ccc(Cl)cn3)ccc2F)(C(F)F)COC1` [Example 137] had an IC50 of 18 nM. `Cc1cnc(C(=O)Nc2cccc(C3(C)COCC(N)=N3)c2)cn1` (stereo not drawn) [Example 6, 5-Methyl-pyrazine-2-carboxylic acid [3-(5-amino-3-methyl-3,6-dihydro-2H-[1,4]oxazin-3-yl)-phenyl]-amide hydrochloride] yielded an IC50 of 3440 nM.

As to `NC1=N[C@@](c2cc(NC(=O)c3ccc(OC(F)F)cn3)ccc2F)(C(F)F)COC1` [Example 138], the IC50 was 458 nM. `CC1(c2cccc(NC(=O)c3cccnc3)c2)COCC(N)=N1` (stereo not drawn) [Example 28, N-[3-(5-Amino-3-methyl-3,6-dihydro-2H-[1,4]oxazin-3-yl)-phenyl]-nicotinamide hydrochloride] gave an IC50 greater than 10000 nM. As for `Cc1cc(Br)cnc1C(=O)Nc1cccc(C2(C(F)F)COCC(N)=N2)c1` (stereo not drawn) [Example 37], it took 58 nM to reach half-maximal inhibition (IC50). Take `Cl.[2H]c1nc(C(=O)Nc2ccc(F)c([C@]3(C(F)F)COCC(N)=N3)c2)c(C([2H])([2H])[2H])c([2H])c1Br` [Example 116]: half-maximal inhibition (IC50) was put at 9 nM. On to `CCN1CC(C)(c2cc(NC(=O)c3ccc(C#N)cn3)ccc2F)N=C(N)C1=O` (stereo not drawn) [Example 199, 5-Cyano-pyridine-2-carboxylic acid [3-(6-amino-4-ethyl-2-methyl-5-oxo-2,3,4,5-tetrahydro-pyrazin-2-yl)-4-fluoro-phenyl]-amide hydrochloride], for which the half-inhibitory concentration (IC50) was 132 nM.

`Cc1cc(C(=O)Nc2ccc(F)c([C@]3(C(F)F)COCC(N)=N3)c2)n[nH]1` [Example 142] had an IC50 of 522 nM.
